Read-outs that look alike come from different tables or passages of the source. One block for each molecule: values may come before it.
Target: T1, NR2F6 (Homo sapiens, UniProt P10588)
T1 construct: expressed in transfected cells; also transient transfection
T1 sequence (P10588 1-404): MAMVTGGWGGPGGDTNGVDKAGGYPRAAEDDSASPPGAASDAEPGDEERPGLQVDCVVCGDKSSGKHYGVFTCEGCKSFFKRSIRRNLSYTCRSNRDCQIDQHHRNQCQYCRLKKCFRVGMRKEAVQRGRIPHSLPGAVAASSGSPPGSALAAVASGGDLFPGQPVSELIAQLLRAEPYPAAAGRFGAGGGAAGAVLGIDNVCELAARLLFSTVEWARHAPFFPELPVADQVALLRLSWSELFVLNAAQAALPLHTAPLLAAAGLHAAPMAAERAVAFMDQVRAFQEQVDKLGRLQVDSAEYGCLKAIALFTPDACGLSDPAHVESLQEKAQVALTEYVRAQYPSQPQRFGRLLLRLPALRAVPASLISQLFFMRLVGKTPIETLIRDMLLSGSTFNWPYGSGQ
Assay: NR2F6 agonist screening, Firefly signal cmpd/DMSO
Format: cell-based
Conditions: for Firefly/Renilla (NR2F6 stable, clone F4): ratio Firefly/Renilla; for Firefly, NR2F6 stable (clone F4)/pGL4: ratio of Firefly in NR2F6 stable clone F4 to pGL4

[1] = C11 analogs follow set (Tables 2-10), repeat 1
[2] = C11 analogs follow set (Tables 2-10), repeat 2

- Firefly, cmpd/DMSO repeat 1 [1]: 1.0
- Firefly, cmpd/DMSO repeat 2 [2]: 6.9
SMILES: Cc1cc(C)cc(S(=O)(=O)c2cc3cc(Cl)ccc3oc2=O)c1 [Compound C186]

- Firefly, cmpd/DMSO repeat 1 [1]: 0.9
- Firefly, cmpd/DMSO repeat 2 [2]: 1.7
SMILES: COC(=O)c1ccc2oc(=O)c(S(=O)(=O)c3ccc(Cl)cc3)cc2c1 [Compound C15]

- Firefly, cmpd/DMSO repeat 1 [1]: 10.4
- Firefly, cmpd/DMSO repeat 2 [2]: 6.5
- Firefly/Renilla (NR2F6 stable, clone F4) (Table 13): 1.1
- Firefly, NR2F6 stable (clone F4)/pGL4 (Table 13): 6.2
- Firefly, cmpd/DMSO repeat 1 (Table 13, repeat 1): 10.4
- Firefly, cmpd/DMSO repeat 2 (Table 13, repeat 2): 6.5
SMILES: O=c1oc2ccc(Cl)cc2cc1S(=O)(=O)c1ccccc1F [Compound C220]

- Firefly, cmpd/DMSO repeat 1 [1]: 1.5
- Firefly, cmpd/DMSO repeat 2 [2]: 1.2
SMILES: COc1ccc2oc(=O)c(S(=O)(=O)c3ccc(F)c(Cl)c3)cc2c1 [Compound C158]

- Firefly, cmpd/DMSO repeat 1 (Table 9, repeat 1): 1.9
- Firefly, cmpd/DMSO repeat 2 (Table 9, repeat 2): 1.3
SMILES: COc1cccc2cc(S(=O)(=O)c3ccc(Cl)c(Cl)c3)c(=O)oc12 [Compound C245]

- Firefly, cmpd/DMSO repeat 1 [1]: 20.0
- Firefly, cmpd/DMSO repeat 2 [2]: 16.7
- Firefly/Renilla (NR2F6 stable, clone F4) (Table 12): 2.6
- Firefly, NR2F6 stable (clone F4)/pGL4 (Table 12): 6.6
- Firefly, cmpd/DMSO repeat 1 (Table 12, repeat 1): 20.0
- Firefly, cmpd/DMSO repeat 2 (Table 12, repeat 2): 16.7
SMILES: COC(=O)c1ccc2oc(=O)c(S(=O)(=O)c3ccc(OC)cc3)cc2c1 [Compound C12]

- Firefly, cmpd/DMSO repeat 1 [1]: 1.8
- Firefly, cmpd/DMSO repeat 2 [2]: 2.2
SMILES: COc1ccc2cc(S(=O)(=O)c3cc(F)cc(F)c3)c(=O)oc2c1 [Compound C262]

- Firefly, cmpd/DMSO repeat 1 [1]: 37.3
- Firefly, cmpd/DMSO repeat 2 [2]: 33.3
- Firefly/Renilla (NR2F6 stable, clone F4) (Table 12): 2.0
- Firefly, NR2F6 stable (clone F4)/pGL4 (Table 12): 10.9
- Firefly, cmpd/DMSO repeat 1 (Table 12, repeat 1): 37.3
- Firefly, cmpd/DMSO repeat 2 (Table 12, repeat 2): 33.3
SMILES: COc1ccc(S(=O)(=O)c2cc3cc(Cl)ccc3oc2=O)cc1OC [Compound C155]

- Firefly, cmpd/DMSO repeat 1 [1]: 1.3
- Firefly, cmpd/DMSO repeat 2 [2]: 0.9
SMILES: COc1ccc2oc(=O)c(S(=O)(=O)c3ccccc3F)cc2c1 [Compound C221]

The remaining lines, values behind:

SMILES: O=c1oc2c(Br)cc(Br)cc2cc1S(=O)(=O)c1ccc(Cl)cc1 [Compound C286]
- Firefly, cmpd/DMSO repeat 1 (Table 11, repeat 1): 2.3
- Firefly, cmpd/DMSO repeat 2 (Table 11, repeat 2): 2.4

SMILES: COc1ccc(NC(=O)c2ccc3oc(=O)c(S(=O)(=O)c4ccc(Cl)cc4)cc3c2)cc1 [Compound C180]
- Firefly, cmpd/DMSO repeat 1 [1]: 34.0
- Firefly, cmpd/DMSO repeat 2 [2]: 34.5
- Firefly/Renilla (NR2F6 stable, clone F4) (Table 13): 1.1
- Firefly, NR2F6 stable (clone F4)/pGL4 (Table 13): 13.1
- Firefly, cmpd/DMSO repeat 1 (Table 13, repeat 1): 34.0
- Firefly, cmpd/DMSO repeat 2 (Table 13, repeat 2): 34.5

SMILES: CC(=O)Nc1ccc(Cl)c2nonc12 [Compound Z113]
- Firefly, cmpd/DMSO (mean): 1.0
- Firefly, cmpd/DMSO (mean) (Concentration 2): 1.3
- F4, cmpd/DMSO (mean) (Concentration 2): 1.2
- Firefly, cmpd/DMSO (mean) (Concentration 10): 1.1
- F4, cmpd/DMSO (mean) (Concentration 10): 1.5
- Firefly, cmpd/DMSO (mean) (Concentration 40): 0.9
- F4, cmpd/DMSO (mean) (Concentration 40): 1.2

SMILES: CCOc1cccc2cc(S(=O)(=O)c3ccc(Cl)cc3)c(=O)oc12 [Compound C244]
- Firefly, cmpd/DMSO repeat 1 (Table 9, repeat 1): 9.7
- Firefly, cmpd/DMSO repeat 2 (Table 9, repeat 2): 14.1

SMILES: Cc1ccc(NC(=O)c2ccc3oc(=O)c(S(=O)(=O)c4ccccc4)cc3c2)c(C)c1 [Compound C164]
- Firefly, cmpd/DMSO repeat 1 [1]: 29.3
- Firefly, cmpd/DMSO repeat 2 [2]: 19.6
- Firefly/Renilla (NR2F6 stable, clone F4) (Table 12): 2.1
- Firefly, NR2F6 stable (clone F4)/pGL4 (Table 12): 8.2
- Firefly, cmpd/DMSO repeat 1 (Table 12, repeat 1): 29.3
- Firefly, cmpd/DMSO repeat 2 (Table 12, repeat 2): 19.6

SMILES: O=c1oc2ccc(Br)cc2cc1S(=O)(=O)c1cc(F)cc(F)c1 [Compound C193]
- Firefly, cmpd/DMSO repeat 1 [1]: 1.8
- Firefly, cmpd/DMSO repeat 2 [2]: 1.9

SMILES: COc1ccc(NC(=O)c2ccc3oc(=O)c(S(=O)(=O)c4ccc(C)cc4)cc3c2)cc1OC [Compound C121]
- Firefly, cmpd/DMSO repeat 1 [1]: 9.0
- Firefly, cmpd/DMSO repeat 2 [2]: 21.5

SMILES: CCOc1cccc2cc(S(=O)(=O)c3ccc(C(C)(C)C)cc3)c(=O)oc12 [Compound C240]
- Firefly, cmpd/DMSO repeat 1 (Table 9, repeat 1): 1.5
- Firefly, cmpd/DMSO repeat 2 (Table 9, repeat 2): 0.9

SMILES: Cc1cc(C)n2nc(CNS(=O)(=O)c3c(F)c(F)c(F)c(F)c3F)nc2n1 [Compound E21]
- Firefly, cmpd/DMSO (mean) (mean of repeats): 7.3
- Firefly, cmpd repeat 1 (raw signal, repeat 1): 526
- Firefly, cmpd repeat 2 (raw signal, repeat 2): 306
- Firefly, cmpd/DMSO repeat 1 (repeat 1): 9.5
- Firefly, cmpd/DMSO repeat 2 (repeat 2): 5.6
- activity (in words) (screening result): desirable activity

SMILES: Cc1cc(C)cc(S(=O)(=O)c2cc3cc(Br)ccc3oc2=O)c1 [Compound C187]
- Firefly, cmpd/DMSO repeat 1 [1]: 0.8
- Firefly, cmpd/DMSO repeat 2 [2]: 0.7

SMILES: CCOc1cccc2cc(S(=O)(=O)c3ccc(C)cc3)c(=O)oc12 [Compound C236]
- Firefly, cmpd/DMSO repeat 1 (Table 9, repeat 1): 4.4
- Firefly, cmpd/DMSO repeat 2 (Table 9, repeat 2): 4.9
